Assay results: US20050209295A1, “Methimazole derivatives and tautomeric cyclic thiones to inhibit cell adhesion” (priority 2004, published 2005)

Legend:
Type in all cases: cell-based, human
[1] = test system: U937 cell adhesion to HAEC; experiment: Flow adhesion assay: U937 cell adhesion to TNF-α activated HAEC; conditions: shear stress 1.8 dynes/cm^2
Protocol: U937 cells (American Type Culture Collection; Manassas, Va.) are cultured in RPMI supplemented with 8% FBS, 2 mM L-glutamine, 100 units/ml penicillin and 100 μg/ml streptomycin. For the adhesion assays, U937 cells are washed, resuspended to 1×10^8 cells/ml in RPMI and held on ice (<4 hrs.) until the time they are used in the flow adhesion assay.
Flow adhesion assays: A parallel plate flow chamber (Glycotech; Rockville, Md.), similar to that described by McIntire, Smith and colleagues (34) is used in this study. Our particular set up has been described previously (20). A 35-mm tissue culture dish containing a confluent HAEC monolayer is loaded into the flow chamber. After a brief rinse, U937 cells (5*10^5 cells/ml in assay buffer) are drawn over the HAEC monolayer at a shear stress of 1.8 dynes/cm^2. To determine U937 cell accumulation, the number of U937 cells adherent (either rolling or firmly adherent) to the HAEC monolayer in 8 different fields of view after 2.5 minutes of flow is determined, averaged and normalized to the area of the field of view to give the result for that particular run. Such an assay is done at least 3 times. In certain experiments, TNF-α activated HAEC, in the absence or presence of C-10, are treated with mAbs HEL3/2 or 51-10C9 (10 μg/ml) or a combination of HEL3/2 and 51-10C9. […]

HAEC = HAEC viability (MTS assay and visual inspection); conditions: concentrations used in this study
Protocol: Cell culture and treatment of HAEC: Human aortic endothelial cells (HAEC; Cambrex Bio Science Walkersville, Inc., Walkersville, Md.) are cultured in M199 supplemented with 8% FBS, 100 μg/ml heparin, 10 ng/ml endothelial growth factor, 100 μg/ml hypothalamus extract, 2 mM L-glutamine, 1% non-essential amino acids, 100 units/ml penicillin and 100 μg/ml streptomycin. HAEC are subcultured on gelatin pre-coated: 96-well tissue culture plates (Corning Incorporated; Corning, N.Y.) for viability assays and ELISA; 100-mm tissue culture dishes (BD Falcon; Franklin Lakes, N.J.) for Northern blot analyses, Western blot analyses and EMSA; 35-mm tissue culture dishes (Corning) for adhesion assays and on 24-well tissue culture plates for luciferase promoter assays (BD Falcon). All experiments are performed with confluent HAEC monolayers. Unless noted otherwise, HAEC are treated with 25 ng/ml TNF-α, in the absence or presence of C-10 or 0.25% DMSO (carrier control for C-10), for 2-24 hrs. The concentration of DMSO is held constant at 0.25% (unless indicated otherwise) for all of the C-10 conditions.

NF-κB = experiment: EMSA of TNF-α induced NF-κB binding activity to VCAM-1 promoter; conditions: 0.5 mM; 2 hr. TNF-α; HAEC nuclear extract
Protocol: Nuclear Extracts and EMSA: Nuclear extracts are prepared from harvested HAEC using NE-PER® extraction reagents (Pierce Chemical Co.; Rockford, Ill.) in the presence of a protease inhibitor cocktail (PMSF, Leupeptin, Pepstatin-A). Oligonucleotides (Biosynthesis Inc.; Lewisville, Tex.) are annealed and precipitated double stranded oligonucleotides end labeled with γ-^32P-ATP using T4 polynucleotide kinase enzyme. Binding reactions (20 min., room temperature) included ^32P-labeled probe (activity 100,000 cpm), 3-6 μg HAEC nuclear extract, 1 μg poly(dI-dC), 1 mM DTT, 10% glycerol and 1× binding buffer. Binding buffer (10×) for NF-κB EMSA is 200 mM HEPES-KOH (pH7.9), 340 mM KCl, 50 mM MgCl2, 5 mM EDTA (pH 8.0), 1% Triton X-100. Binding buffer (10×) for IRF-1 EMSA is 100 mM Tris-HCL (pH 7.5), 500 mM NaCl, 50 mM MgCl2, 10 mM EDTA (pH 8.0). In competition studies, nuclear extracts are incubated with 100 fold molar excess of unlabeled double stranded oligonucleotide. In supershift studies, nuclear extracts are incubated with 2 μg of appropriate antibodies. After the incubations, reaction mixtures are electrophoresed (160V, room temperature) on 5% non-denaturing polyacrylamide gels containing 5% glycerol in 1×TBE (50 mM Tris, 50 mM boric acid, and 1 mM EDTA). Gels are dried and autoradiographed. Each experiment is replicated at least twice. […]

Cn1c(-c2ccccc2)cnc1S [5-Phenylmethimazole]
effect on TNF-α induced U937 cell adhesion to HAEC ([1]; 4 hr. TNF-α, C-10 0.5 mM, mAbs 10 μg/ml): little effect
effect on TNF-α induced U937 cell adhesion to HAEC ([1]; 24 hr. TNF-α, C-10 0.1 mM alone vs. DMSO): significantly reduced
effect on HAEC viability (HAEC): little to no effect
effect on TNF-α dependent NF-κB complex formation (EMSA) (NF-κB): no effect
